Data reported in article PMC10652611 (Cell & Bioscience, 2023).

Columns and labels:
NK2 [1] = target: T1, NK2 (Homo sapiens, UniProt P21452); assay: NanoBiT cytosolic Ca^2+ response, NK2; assay type: cell-based; conditions: HEK293 cells, NK2, Calmodulin-SmBiT/LgBiT-MYLK2S, luminescence
T1 construct: expressed in transfected cells; host or cells: HEK293
T1 sequence (P21452 1-398): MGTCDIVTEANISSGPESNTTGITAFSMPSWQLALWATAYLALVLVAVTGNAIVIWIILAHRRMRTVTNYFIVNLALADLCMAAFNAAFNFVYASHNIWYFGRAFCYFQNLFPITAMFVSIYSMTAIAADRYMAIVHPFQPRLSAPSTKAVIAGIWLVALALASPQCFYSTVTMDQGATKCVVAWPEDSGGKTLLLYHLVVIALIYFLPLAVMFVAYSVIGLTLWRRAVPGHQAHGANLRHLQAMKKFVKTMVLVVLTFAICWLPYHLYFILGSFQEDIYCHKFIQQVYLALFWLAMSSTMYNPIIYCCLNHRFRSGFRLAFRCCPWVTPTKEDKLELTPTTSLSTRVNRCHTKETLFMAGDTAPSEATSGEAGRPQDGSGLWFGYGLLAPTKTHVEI
Experimental: NKs have been extensively studied, especially with respect to neuropeptide-stimulated Ca^2+ responses. Recently, we developed a real-time calcium assay based on NanoBiT and the Ca^2+-dependent interaction of calmodulin and its target proteins to analyze NK-mediated cellular responses. First, neuropeptide-stimulated luciferase activation was measured in cells expressing NKs and calcium probes to determine the suitability of our assay method. […] Next, the activation efficiency of receptors by each peptide was investigated on Ca^2+ responses based on NanoBiT assay.
NanoLuc Binary Technology (NanoBiT) was utilized to investigate protein–protein interaction. HEK293 cells were seeded in a 96-well white plate at a density of 2 × 10^4 cells per well. The following day, cells were transfected with 50 ng of each plasmid containing SmBiT- or LgBiT- tagged genes using 0.2 µl Lipofectamine 2000 (Invitrogen, Carlsbad, CA, USA). […] Baseline luminescence was measure for 10 min using a SpectraMax L plate reader (Molecular Devices, San Jose, CA, USA). After stimulation with ligands, the luminescence signal was continuously measured for 1 h.
Cytosolic Ca^2+ changes were detected using a NanoBiT system as described previously. […]

NK1 = target: T2, NK1 (Homo sapiens, UniProt P25103); assay: NanoBiT β-arrestin1 recruitment to NK1 (NK1-SmBiT/β-arr1-LgBiT); assay type: cell-based
T2 construct: expressed in transfected cells; host or cells: HEK293
T2 sequence (P25103 whole entry): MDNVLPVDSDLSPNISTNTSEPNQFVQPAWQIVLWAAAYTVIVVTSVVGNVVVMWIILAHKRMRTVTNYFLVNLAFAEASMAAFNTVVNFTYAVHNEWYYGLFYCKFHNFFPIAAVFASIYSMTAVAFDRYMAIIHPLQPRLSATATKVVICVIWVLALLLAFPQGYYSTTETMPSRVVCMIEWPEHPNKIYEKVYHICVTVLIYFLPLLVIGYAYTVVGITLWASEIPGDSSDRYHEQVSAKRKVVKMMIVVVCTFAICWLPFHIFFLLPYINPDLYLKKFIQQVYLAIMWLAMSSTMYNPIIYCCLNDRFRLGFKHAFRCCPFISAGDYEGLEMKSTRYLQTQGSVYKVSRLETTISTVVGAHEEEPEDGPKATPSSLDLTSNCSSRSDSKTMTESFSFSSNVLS
Experimental: (§1) Ligand-stimulated β-arrestin recruitment to receptors was also examined using the NanoBiT system. The NanoBiT system was used to create construct combinations of receptors and β-arrestin, which were tagged with either SmBiT or LgBiT at N- or C-terminal. These constructs were then expressed in HEK293 cells.
(§2) NanoLuc Binary Technology (NanoBiT) was utilized to investigate protein–protein interaction. HEK293 cells were seeded in a 96-well white plate at a density of 2 × 10^4 cells per well. The following day, cells were transfected with 50 ng of each plasmid containing SmBiT- or LgBiT- tagged genes using 0.2 µl Lipofectamine 2000 (Invitrogen, Carlsbad, CA, USA). To investigate the effect of one receptor on another receptor in β-arrestin recruitment, 100 ng of un-tagged receptor was co-transfected with 50 ng of each of NanoBiT-tagged plasmid and mixed with 0.4 µl Lipofectamine 2000. At 24 h after transfection, the medium was changed to 100 µl of Opti-MEM and the plate was stabilized at room temperature for 10 min before adding NanoBiT substrate. If an inhibitor was used, it was pre-incubated at 37 ℃ for 20 min and at room temperature for 10 min before substrate addition. Baseline luminescence was measure for 10 min using a SpectraMax L plate reader (Molecular Devices, San Jose, CA, USA). After stimulation with ligands, the luminescence signal was continuously measured for 1 h.

NK2 [2] = assay: NanoBiT β-arrestin1 recruitment to NK2 (NK2-LgBiT/β-arr1-SmBiT); assay type: cell-based; conditions: for effect of aprepitant on NKA-stimulated β-arrestin1 recruitment: 10 nM NKA
Experimental: as §1, §2

[3] = test system: human colorectal cancer cell DLD-1; conditions: cited from earlier work
Source text: Although some studies have reported that NK1 and NK2 are expressed in some cancers, the role of NK2 in cancer remains controversial.

[4] = cited from earlier work
[5] = target: Neurokinin-1 receptor, C-terminal SmBiT- or LgBiT-tagged (UniProt P25103 1-407); assay: cell-based or functional assay
Chain of Neurokinin-1 receptor, C-terminal SmBiT- or LgBiT-tagged (P25103 whole entry): as above

## CSCC[C@H](NC(=O)[C@H](CC(C)C)NC(=O)CNC(=O)[C@@H](NC(=O)[C@H](Cc1ccccc1)NC(=O)[C@H](Cc1ccccc1)NC(=O)[C@H](CC(=O)O)NC(=O)[C@H](Cc1c[nH]cn1)NC(=O)[C@H](CCSC)NC(=O)[C@@H](N)CC(=O)O)C(C)C)C(N)=O [NKB, neurokinin B]
NK2 [1]
  EC50: 0.24 nM

## C[C@@H](O[C@H]1OCCN(Cc2n[nH]c(=O)[nH]2)[C@H]1c1ccc(F)cc1)c1cc(C(F)(F)F)cc(C(F)(F)F)c1 [aprepitant]
NK1; NK1-SmBiT/β-arr1-LgBiT + intact NK2, 1 μM aprepitant 30 min, 1 μM SP
  SP-stimulated luciferase activities in the presence of aprepitant and intact NK2: slightly increased by SP even in the presence of the inhibitor
NK1; NK1-SmBiT/β-arr1-LgBiT + intact NK2, aprepitant 30 min, 10 nM NKA
  NKA-stimulated luciferase activities in the presence of aprepitant and intact NK2: slightly increased by NKA in the presence of aprepitant
NK1; NK1-SmBiT/β-arr1-LgBiT, 1 μM aprepitant 30 min, 1 μM SP
  effect of aprepitant on SP-stimulated β-arrestin1 recruitment: completely inhibited
NK1; NK1-SmBiT/β-arr1-LgBiT, aprepitant 30 min, 10 nM NKA
  effect of aprepitant on NKA-stimulated β-arrestin1 recruitment: inhibited
NK2 [2]; NK2-LgBiT/β-arr1-SmBiT + intact NK1, 10 nM SP, aprepitant
  effect of aprepitant on SP-stimulated NK2/β-arrestin1 interaction: inhibited luciferase activities
NK2 [2]; NK2-LgBiT/β-arr1-SmBiT + intact NK1, aprepitant 30 min
  effect of aprepitant on NKA-stimulated β-arrestin1 recruitment: not downregulated
NK2 [2]; NK2-LgBiT/β-arr1-SmBiT, 1 μM aprepitant 30 min, 1 μM SP
  effect of aprepitant on SP-stimulated β-arrestin1 recruitment: not affected
NK2 [2]; NK2-LgBiT/β-arr1-SmBiT, aprepitant 30 min
  effect of aprepitant on NKA-stimulated β-arrestin1 recruitment: not influenced
[3]
  effect on AKT/mTOR and Wnt/β-catenin signaling pathways: suppression of AKT/mTOR and Wnt/β-catenin signaling pathways
[4]
  antitumor activity: antitumor activities through promoting apoptotic mechanisms

B1: Neurokinin-2 receptor, C-terminal SmBiT- or LgBiT-tagged (receptor, UniProt P21452 1-398, looked up)
chain: T1 sequence (P21452 1-398)
[5]
  EC50 of SP for recruitment of β-arrestin1-SmBiT to NK2-LgBiT (NanoBiT luciferase) with intact NK1 co-expressed: 164 nM
